Assay results from US20250074891A1 (Anaxis Pharma Pty Ltd., priority 2021, published 2025).
Read-outs that look alike come from different tables or passages of the source.

Tests used:
MLKL (full length) = MLKL (full length) (Homo sapiens (Human), UniProt Q8NB16); test: KINOMEscan binding assay, MLKL (full length)
Description: (§1) Kinase assays. For most assays, kinase-tagged T7 phage strains were grown in parallel in 24-well blocks in an E. coli host derived from the BL21 strain. E. coli were grown to log-phase and infected with T7 phage from a frozen stock (multiplicity of infection=0.4) and incubated with shaking at 32° C. until lysis (90-150 minutes).
(§2) The Hill Slope was set to −1.

RIP1 = RIP1 (Homo sapiens (Human), UniProt Q13546); test: KINOMEscan binding assay, RIP1; conditions: Table 35
Sequence of RIP1 (Q13546 whole entry): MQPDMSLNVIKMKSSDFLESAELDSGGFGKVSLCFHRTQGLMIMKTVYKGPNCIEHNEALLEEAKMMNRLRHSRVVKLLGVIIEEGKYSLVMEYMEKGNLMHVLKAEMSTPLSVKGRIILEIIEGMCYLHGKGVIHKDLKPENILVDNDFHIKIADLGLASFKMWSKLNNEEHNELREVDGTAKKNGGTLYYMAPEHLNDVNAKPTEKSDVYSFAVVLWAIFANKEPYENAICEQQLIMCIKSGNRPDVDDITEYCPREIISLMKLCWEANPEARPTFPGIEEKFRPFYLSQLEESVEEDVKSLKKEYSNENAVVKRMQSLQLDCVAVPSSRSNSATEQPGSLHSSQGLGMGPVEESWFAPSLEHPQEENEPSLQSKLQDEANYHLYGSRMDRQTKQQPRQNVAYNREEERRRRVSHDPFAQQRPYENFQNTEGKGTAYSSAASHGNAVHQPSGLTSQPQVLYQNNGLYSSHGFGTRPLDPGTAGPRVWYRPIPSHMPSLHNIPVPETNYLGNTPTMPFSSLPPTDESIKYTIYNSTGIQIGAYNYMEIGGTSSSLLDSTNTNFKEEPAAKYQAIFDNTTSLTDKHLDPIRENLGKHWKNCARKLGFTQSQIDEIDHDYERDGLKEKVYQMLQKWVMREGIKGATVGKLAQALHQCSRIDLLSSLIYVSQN

RIP3 = RIP3 (Homo sapiens (Human), UniProt Q9Y572); test: KINOMEscan binding assay, RIP3; conditions: Table 35
Sequence of RIP3 (Q9Y572 whole entry): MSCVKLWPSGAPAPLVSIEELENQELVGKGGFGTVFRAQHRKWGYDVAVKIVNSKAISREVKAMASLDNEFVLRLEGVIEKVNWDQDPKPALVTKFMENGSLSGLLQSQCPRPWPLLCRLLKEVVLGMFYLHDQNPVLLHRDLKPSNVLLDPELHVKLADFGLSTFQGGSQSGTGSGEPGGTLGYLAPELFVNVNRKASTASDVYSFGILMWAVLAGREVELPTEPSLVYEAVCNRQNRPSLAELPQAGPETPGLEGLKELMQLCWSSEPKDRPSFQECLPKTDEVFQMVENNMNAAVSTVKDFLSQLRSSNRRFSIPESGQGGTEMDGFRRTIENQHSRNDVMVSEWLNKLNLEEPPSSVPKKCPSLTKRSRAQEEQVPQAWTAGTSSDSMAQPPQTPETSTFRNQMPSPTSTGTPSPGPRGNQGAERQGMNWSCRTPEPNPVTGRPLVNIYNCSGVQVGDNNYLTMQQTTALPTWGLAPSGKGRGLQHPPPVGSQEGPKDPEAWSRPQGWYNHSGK
Description: as §1, §2

[1] = system: U937 human histiocytic leukemia cell line; test: Cellular assay: inhibition of TSQ induced necroptosis (CellTitre-Glo); conditions: U937 cells, TSQ cocktail, 48 hours, read-out: Inhibition of TSQ-induced necroptosis (IC50 cell-based assay)
Description: […] ASSAY: Screening compounds for inhibition of TSQ induced necroptosis, 384 well plate format.
Cell Line ID: U937 human histiocytic leukemia cell line.
Cell Concentration (cells/well): Final cell density is 20,000 cells per well.
Cell growth medium: HT-RPMI medium+7.4% Fetal Bovine Serum (FBS). Cells are cultured in Corning 150 cm^z tissue culture flasks with vented caps at 37° C./5% CO2.
Incubation: Plates were incubated at 37° C./5% CO2 in a humidified incubator for 48 hours following addition of compounds and death stimuli (TSQ cocktail).
Compound concentration: 36 μM starting concentration, 1:3 dilution, 10 point
DMSO final concentration (% v/v): 0.3%.
Compounds in TSQ cocktail (T: TNF; S: Smac mimetic; Q: Q-VD-OPh) and their final concentrations: • hTNF-Fc (100 ng/ml)—produced by standard procedures as shown in Bossen et al., J Biol Chem, 2006, 281(20), 13964-13971. • Compound A (500 nM)—Smac mimetic, Tetralogic and SYNthesis med chem • Q-VD-OPh (10 μM)—MP Biomedicals
The cellular assay was carried out according to the following steps: • 1. Each well was prepared by sequential addition of: • a. DMSO (control; columns 1-2 and 23-24) or compound in DMSO—addition was performed using acoustic transfer of nl volumes of stock compound to give final test concentrations of 36, 12, 4, 1.3, 0.44, 0.148, 0.049, 0.016, 0.005 and 0.002 μM. All wells were backfilled with DMSO to a final total volume in the well of 100 nl. • b. Following compound/DMSO addition in step (a), 40 μL of cell suspension (5×10^5 cells/mL) was added to provide a final cell concentration of 20,000 cells per well, and • c. Following cell addition in step (b), 10 μL of 5×TSQ cocktail (except to positive controls; […]) was added to each well. • 2. After 48 hours, plate was removed from the 37° C. incubator and equilibrated to room temperature for 45 minutes. • 3. 15 μL of room temperature CellTitre-Glo2™ (Promega™) was added to each well. • 4. Shook plates for 2 minutes (˜600 rpm) and incubated at room temperature for 15 minutes to allow signal to stabilise. • 5. Read luminescence readout on a plate reader.
Percent viability was calculated for each compound according to equation (2):
[formula] • wherein • RawData is the readout of any cell containing a compound of the invention • TA is the total activity provided by the luminescence readout from DMSO only wells (columns 2 and 24)=100% viability • NSA is the non-specific activity provided by DMSO+TSQ wells (columns 1 and 23)=0% viability
Curve fitting: 10-point titration curves are fitted with the 4-parameter logistic nonlinear regression model and the IC50 reported is the inflection point of the curve.
Analysis: Data was loaded into Dotmatics™ and visualised using the Tibco® Spotfire™ software. 10 points titration curves were fitted with the 4-parameter logistic nonlinear regression model and the IC50 reported reflect the inflection point of the curve for curve fitting.
Assay involving the TSQ cocktail (T: TNF; S: Smac mimetic; Q: Q-VD-OPh): TSQ treatment ensures that cells specifically undergo necroptotic cell death. TNF activates the TNF receptor, Smac mimetic directs the signal away from proinflammatory signaling and toward the RIP1/RIP3-mediated cell death pathways, and Q-VD-OPh ensures that the apoptotic response is blocked leaving only the programmed necrosis response. The compounds' activity (solution in DMSO) tested in this TSQ-induced assay was evaluated by determining the number of viable cells in culture by measuring the amount of ATP present as measured by CelltiterGlo.

U937 cells = test: Counter screen: cell viability without TSQ cocktail (off-target effect); design: species or system human
Description: Counter screen: In parallel, all compounds were tested for their ability to affect cell viability. The same U937 cells were treated with compound in DMSO without the TSQ cocktail. This counter screen enabled evaluation of off-target effects. In this case, cell viability was measured by CelltiterGlo.

[2] = Homo sapiens, U-937, Table 37, read-out: Off-target effect (IC50 cell-based assay)
[3] = Homo sapiens, U-937, Table 38, read-out: Off-target effect (IC50 cell-based assay)

Sequence of MLKL (full length) (Q8NB16 whole entry): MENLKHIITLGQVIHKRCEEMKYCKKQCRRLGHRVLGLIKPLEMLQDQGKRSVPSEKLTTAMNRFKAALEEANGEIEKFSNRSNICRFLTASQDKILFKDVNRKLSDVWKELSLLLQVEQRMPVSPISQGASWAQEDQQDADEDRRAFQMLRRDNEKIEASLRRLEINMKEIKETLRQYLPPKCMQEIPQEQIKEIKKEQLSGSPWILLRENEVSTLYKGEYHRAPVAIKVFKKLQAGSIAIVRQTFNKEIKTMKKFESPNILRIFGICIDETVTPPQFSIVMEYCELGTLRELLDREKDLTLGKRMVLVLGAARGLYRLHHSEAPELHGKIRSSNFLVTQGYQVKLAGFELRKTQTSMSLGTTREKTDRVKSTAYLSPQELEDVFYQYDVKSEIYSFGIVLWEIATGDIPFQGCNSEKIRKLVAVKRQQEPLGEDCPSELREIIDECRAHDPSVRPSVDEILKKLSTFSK

SMILES | Kd (MLKL (full length); Table 35) [µM] | Kd (RIP1) [µM] | Kd (RIP3) [µM] | IC50 ([1]; Homo sapiens, U-937, Table 37) [µM] | IC50 (U937 cells; [2]) [µM] | IC50 ([1]; Table 37) [µM] | IC50 (U937 cells; Table 37, read-out: Off-target effect (IC50 cell-based assay)) [µM] | Kd (MLKL (full length); Table 36) [µM] | IC50 ([1]; Homo sapiens, U-937, Table 38) [µM] | IC50 (U937 cells; [3]) [µM]
NC(=O)c1c(-c2ccc(NS(=O)(=O)Cc3cccc(Cl)c3)cc2)n[nH]c1Nc1cccc(C(F)(F)F)n1 [Compound 9, 3-(4-(((3-chlorophenyl)methyl)sulfonamido)phenyl)-5-((6-(trifluoromethyl)pyridin-2-yl)amino)-1H-pyrazole-4-carboxamide] | < 0.01 | > 30 | > 30 | 0.01 to 1 | > 30 | – | – | – | – | –
CCS(=O)(=O)Nc1ccc(-c2n[nH]c(Nc3cncc(C)n3)c2C(N)=O)cc1 [Compound 84, 3-(4-(ethylsulfonamido)phenyl)-5-((6-methylpyrazin-2-yl)amino)-1H-pyrazole-4-carboxamide] | < 0.01 | > 30 | 1 to 30 | 1 to 30 | > 30 | – | – | – | – | –
CCS(=O)(=O)Nc1ccc(-c2c(C(N)=O)c(Nc3cnccn3)nn2C)cc1 [Compound 222, 5-(4-(ethylsulfonamido)phenyl)-1-methyl-3-(pyrazin-2-ylamino)-1H-pyrazole-4-carboxamide] | < 0.01 | > 30 | > 30 | 1 to 30 | > 30 | – | – | – | – | –
C[C@H](Oc1cc(-c2n[nH]c(Nc3cnccn3)c2C(N)=O)ccc1NS(=O)(=O)CC(F)(F)F)c1cccc(F)c1 [Compound 265, 3-{3-[(1S)-1-(3-fluorophenyl)ethoxy]-4-(2,2,2-trifluoroethanesulfonamido)phenyl}-5-[(pyrazin-2-yl)amino]-1H-pyrazole-4-carboxamide] | < 0.01 | > 30 | > 30 | 1 to 30 | > 30 | – | – | – | – | –
Cc1cc(Nc2[nH]nc(-c3ccc(NS(=O)(=O)C(F)F)c(O[C@@H](C)c4ccc(F)cc4)c3)c2C(N)=O)nn1C [Compound 285, (S)-3-(4-((difluoromethyl)sulfonamido)-3-(1-(4-fluorophenyl)ethoxy)phenyl)-5-((1,5-dimethyl-1H-pyrazol-3-yl)amino)-1H-pyrazole-4-carboxamide] | < 0.01 | > 30 | > 30 | < 0.01 | > 30 | – | – | – | – | –
Cc1cnc(Nc2[nH]nc(-c3ccc(NS(=O)(=O)C(F)F)c(OCc4ccc(F)c(F)c4)c3)c2C(N)=O)cn1 [Compound 291, 3-(3-((3,4-difluoro-benzyl)oxy)-4-((difluoro-methyl)sulfon-amido)phenyl)-5-((5-methyl-pyrazin-2-yl)amino)-1H-pyrazole-4-carboxamide] | < 0.01 | > 30 | > 30 | – | – | < 0.01 | 1 to 30 | – | – | –
Cc1ncsc1-c1ccc(CNC(=O)[C@@H]2C[C@@H](O)CN2C(=O)[C@@H](NC(=O)CCCCC#Cc2ccc(Nc3[nH]nc(-c4ccc(NS(=O)(=O)C(F)F)c(O[C@@H](C)c5ccc(F)cc5)c4)c3C(N)=O)nc2)C(C)(C)C)cc1 [Compound 1047, 3-[4-(difluoromethanesulfonamido)-3-[(1 S)-1-(4-fluorophenyl)ethoxy]phenyl]-5-{[5-(6-{[(2S)-1-[(2S,4R)-4-hydroxy-2-({[4-(4-methyl-1,3-thiazol-5-yl)phenyl]methyl}carbamoyl)pyrrolidin-1-yl]-3,3-dimethyl-1-oxobutan-2-yl]carbamoyl}hex-1-yn-1-yl)pyridin-2-yl]amino}-1H-pyrazole-4-carboxamide] | – | – | – | – | – | – | – | 0.01 to 1 | < 1 | 1 to 10
Cc1ncsc1-c1ccc(CNC(=O)[C@@H]2C[C@@H](O)CN2C(=O)[C@@H](NC(=O)CCCCOC(=O)c2ccc(Nc3[nH]nc(-c4ccc(NS(=O)(=O)C(F)F)cc4)c3C(N)=O)nc2)C(C)(C)C)cc1 [Compound 1049, 4-{[(2S)-1-[(2S,4R)-4-hydroxy-2-({[4-(4-methyl-1,3-thiazol-5-yl)phenyl]methyl}carbamoyl)pyrrolidine-1-yl]-3,3-dimethyl-1-oxobutan-2-yl]carbamoyl}butyl 6-({4-carbamoyl-3-[4-(difluoromethanesulfonamido)phenyl]-1H-pyrazol-5-yl}amino)pyridine-3-carboxylate] | – | – | – | – | – | – | – | < 0.01 | 1 to 10 | > 10
CCS(=O)(=O)Nc1ccc(-c2n[nH]c(Nc3ccc(C(=O)OCCCCC(=O)N[C@H](C(=O)N4C[C@H](O)C[C@H]4C(=O)NCc4ccc(-c5scnc5C)cc4)C(C)(C)C)cn3)c2C(N)=O)cc1OCc1ccc(F)cc1 [Compound 1052, 4-{[(2S)-1-[(2S,4R)-4-hydroxy-2-{{[4-(4-methyl-1,3-thiazol-5-yl)phenyl]methyl}carbamoyl)pyrrolidin-1-yl]-3,3-dimethyl-1-oxobutan-2-yl]carbamoyl}butyl 6-[(4-carbamoyl-3-{4-ethanesulfonamido-3-[(4-fluorophenyl)methoxy]phenyl}-1H-pyrazol-5-yl)amino]pyridine-3-carboxylate] | – | – | – | – | – | – | – | 1 to 30 | > 10 | > 10
Cc1ncsc1-c1ccc(CNC(=O)[C@@H]2C[C@@H](O)CN2C(=O)[C@@H](NC(=O)CCCCOC(=O)c2ccc(Nc3[nH]nc(-c4ccc(NS(=O)(=O)C(F)F)c(OCc5ccc(F)cc5)c4)c3C(N)=O)nc2)C(C)(C)C)cc1 [Compound 1055, 4-{[(2S)-1-[(2S,4R)-4-hydroxy-2-({[4-(4-methyl-1,3-thiazol-5-yl)phenyl]methyl}carbamoyl)pyrrolidin-1-yl]-3,3-dimethyl-1-oxobutan-2-yl]carbamoyl}butyl 6-({4-carbamoyl-3-[4-(difluoromethanesulfonamido)-3-[(4-fluorophenyl)methoxy]phenyl]-1H-pyrazol-5-yl}amino)pyridine-3-carboxylate] | – | – | – | – | – | – | – | 0.01 to 1 | < 1 | > 10
CCS(=O)(=O)Nc1ccc(-c2n[nH]c(Nc3ccc(C(=O)OCCCCC(=O)N[C@H](C(=O)N4C[C@H](O)C[C@H]4C(=O)NCc4ccc(-c5scnc5C)cc4)C(C)(C)C)cn3)c2C(N)=O)cc1 [Compound 1060, 4-{[(2S)-1-[(2S,4R)-4-hydroxy-2-({[4-(4-methyl-1,3-thiazol-5-yl)phenyl]methyl}carbamoyl)pyrrolidin-1-yl]-3,3-dimethyl-1-oxobutan-2-yl]carbamoyl}butyl 6-{[4-carbamoyl-3-(4-ethanesulfonamidophenyl)-1H-pyrazol-5-yl]amino}pyridine-3-carboxylate] | – | – | – | – | – | – | – | 0.01 to 1 | < 1 | > 10
